pIC50: −log10 of the molar value.
Assays:
Type in all cases: cell-based
[1] = tested on: rat cerebral synaptosomes; assay: Basal and 4-aminopyridine-evoked glutamate release from synaptosomes (CE-LIF); settings: 10 mM DIMEB, 33 mM HPBCD, 26 mM RAMEA, 85 mM HPACD; 40 min exposure; 1 mM 4-AP, 8 min
Protocol: After thawing and centrifugation, the cryopreserved synaptosomes were resuspended in isotonic HEPES-glucose buffer. Synaptosomal suspensions corresponding to 10 mg of synaptosomes were centrifuged to an 8-well strip plate (15 min, 2500× g, 4 °C) and the supernatant was discarded. Vehicle-treated (control) and CD-treated synaptosomes were incubated in 200 μL HEPES-glucose buffer with or without CDs, respectively, for 40 min at 37 °C. […] After incubation, the supernatant was replaced with fresh HEPES-glucose buffer containing 40 µM DL-TBOA (a competitive, non-transportable blocker of excitatory amino acid transporters that inhibits the reuptake of released glutamate) and equilibrated for 2 × 10 min at 37 °C with buffer replacement. After equilibration, the buffer was replaced by fresh HEPES-glucose buffer in the case of unstimulated groups. […] Following stimulation, aliquots were taken from the buffer at 8 min and stored at −20 °C until CE analysis. The glutamate content of the aliquots was analyzed by a capillary electrophoresis-laser induced fluorescence method developed in our laboratory. Briefly, samples were subjected to derivatization with NBD-F (1 mg/mL final concentration) in 20 mM borate buffer, pH 8.5 for 20 min at 65 °C. […] Glutamate release was normalized to the baseline release from the vehicle-treated, unstimulated synaptosomes. Data were analyzed by GraphPad Prism 8 (GraphPad Software, La Jolla, CA, USA). Concentration–response curves were constructed by the nonlinear regression method. One-way ANOVA followed by Bonferroni’s post hoc test was used for the data analysis in the case of the glutamate release experiments. All data are presented as means ± SEM of at least three parallel measurements. Differences were considered significant if p < 0.05.

[2] = tested on: rat cerebral synaptosomes; assay: Membrane integrity by LDH release assay; settings: for pIC50: 40 min exposure, LDH release as percentage of total LDH (Triton X-100 lysis); for Maximal effect (plateau) of LDH release: percentage of total LDH content
Protocol: Adult male Wistar rats purchased from Toxi-Coop Ltd. (Budapest, Hungary) were used in the experiments. Cerebral synaptosomes were prepared according to Modi and co-workers with the following modifications. Animals were decapitated and the brain was removed rapidly. Isotonic sucrose buffer (0.32 M sucrose, 4 mM HEPES-NaOH, pH 7.4) was used to homogenize the cerebrum with a Potter S Homogenizer (B. Braun, Melsungen, Germany) with 15 strokes at 1000 rpm. The homogenate was centrifuged (1500× g, 10 min, 4 °C) and the pellet was resuspended in sucrose buffer and centrifuged with the same parameters again. The two supernatants were combined and centrifuged (20,000× g, 10 min, 4 °C) to pellet the crude synaptosomes. […] Synaptosomes were stored frozen using cryopreservation buffer and the slow freezing method to preserve their physiological state and integrity. Briefly, synaptosome pellets were resuspended in isotonic sucrose buffer containing 10% DMSO (v/v) and 10% FBS (v/v). To slow down the freezing process at −80 °C, synaptosomes were placed in a 3 cm thick-walled polystyrene box with a lid. Synaptosomes were stored at −80 °C until use. Immediately prior to the experiments, synaptosomes were rapidly thawed in a 37 °C water bath and pelleted by centrifugation (20,000× g, 10 min, 4 °C) to remove the cryopreservation buffer. […] For all types of experiments, except for the glutamate release measurements, vehicle-treated (control) and CD-treated synaptosomes were incubated in 500 μL HEPES-glucose buffer with or without CDs, respectively, for 40 min at 37 °C. […] After incubation, the synaptosomes were centrifuged (20,000× g, 5 min, 4 °C) and used immediately for further analysis. A slightly different incubation method used in the glutamate release measurements is described in the corresponding section. Across all types of experiments, osmolarities of the CD solutions were adjusted and they were between 290 and 310 mOsm. At least three parallel measurements were carried out. The membrane integrity of the synaptosomes was measured by the CytoTox-ONE Homogeneous Membrane Integrity Assay (Promega, Madison, WI, USA) with minor modifications. The assay measures the release of the lactate dehydrogenase (LDH) enzyme from synaptosomes with damaged membranes. […] Both the supernatant and lysis samples were diluted 10-fold. The LDH activity was then assessed according to the manufacturer’s instructions and the fluorescence was measured by a Varioskan LUX multimode microplate reader (Thermo Fisher Scientific) at 530/590 nm.

[3] = tested on: rat cerebral synaptosomes; assay: Resazurin reduction viability assay; settings: for pIC50 / Concentration with significant decrease in viability / metabolic activity: 40 min exposure; for pIC50: percentage of vehicle-treated synaptosomes; for Concentration with significant decrease in viability / metabolic activity: resazurin reduction
Protocol: Adult male Wistar rats purchased from Toxi-Coop Ltd. (Budapest, Hungary) were used in the experiments. Cerebral synaptosomes were prepared according to Modi and co-workers with the following modifications. Animals were decapitated and the brain was removed rapidly. Isotonic sucrose buffer (0.32 M sucrose, 4 mM HEPES-NaOH, pH 7.4) was used to homogenize the cerebrum with a Potter S Homogenizer (B. Braun, Melsungen, Germany) with 15 strokes at 1000 rpm. The homogenate was centrifuged (1500× g, 10 min, 4 °C) and the pellet was resuspended in sucrose buffer and centrifuged with the same parameters again. The two supernatants were combined and centrifuged (20,000× g, 10 min, 4 °C) to pellet the crude synaptosomes. […] Synaptosomes were stored frozen using cryopreservation buffer and the slow freezing method to preserve their physiological state and integrity. Briefly, synaptosome pellets were resuspended in isotonic sucrose buffer containing 10% DMSO (v/v) and 10% FBS (v/v). To slow down the freezing process at −80 °C, synaptosomes were placed in a 3 cm thick-walled polystyrene box with a lid. Synaptosomes were stored at −80 °C until use. Immediately prior to the experiments, synaptosomes were rapidly thawed in a 37 °C water bath and pelleted by centrifugation (20,000× g, 10 min, 4 °C) to remove the cryopreservation buffer. […] For all types of experiments, except for the glutamate release measurements, vehicle-treated (control) and CD-treated synaptosomes were incubated in 500 μL HEPES-glucose buffer with or without CDs, respectively, for 40 min at 37 °C. […] After incubation, the synaptosomes were centrifuged (20,000× g, 5 min, 4 °C) and used immediately for further analysis. A slightly different incubation method used in the glutamate release measurements is described in the corresponding section. Across all types of experiments, osmolarities of the CD solutions were adjusted and they were between 290 and 310 mOsm. At least three parallel measurements were carried out. Viability of the rat cerebral synaptosomes was measured by the Resazurin Cell Viability Kit (Cell Signaling Technology Inc., Danvers, MA, USA) with minor modifications. The assay was based on the reduction in the nonfluorescent resazurin to highly fluorescent resorufin by intracellular dehydrogenase enzymes. Briefly, after CD treatments, 2 mg of the synaptosomes were centrifuged (20,000× g, 5 min, 4 °C) and the supernatant was discarded. […] After 25 min of incubation, synaptosomes were centrifuged (20,000× g, 5 min, 4 °C). Fluorescence of the supernatant was measured with a Varioskan LUX multimode microplate reader (Thermo Fisher Scientific) at 530/590 nm. Viability of the CD-treated synaptosomes was calculated as the percentage of vehicle-treated control synaptosomes.

pIC50 ([2]; Rattus norvegicus, 40 min)	Compound	4-AP-evoked (stimulated) glutamate release [1]	pIC50 [2]	pIC50 ([3]; Rattus norvegicus, 40 min)	Concentration with significant decrease in viability / metabolic activity [3]	Maximal effect (plateau) of LDH release [2]	Viability at 60 mM ([3]; 60 mM)	pIC50 [3]	Concentration with influence on membrane integrity ([2]; LDH release, highest tested concentration) [µM]
	(2-hydroxypropyl)-alpha-cyclodextrin [HPACD]	not detected	< 1.00						
1.51	CC(O)COC[C@H]1O[C@@H]2O[C@H]3[C@H](O)[C@@H](O)[C@@H](O[C@H]4[C@H](O)[C@@H](O)[C@@H](O[C@H]5[C@H](O)[C@@H](O)[C@@H](O[C@H]6[C@H](O)[C@@H](O)[C@@H](O[C@H]7[C@H](O)[C@@H](O)[C@@H](O[C@H]8[C@H](O)[C@@H](O)[C@@H](O[C@H]1[C@H](O)[C@H]2O)O[C@@H]8COCC(C)O)O[C@@H]7COCC(C)O)O[C@@H]6COCC(C)O)O[C@@H]5COCC(C)O)O[C@@H]4COCC(C)O)O[C@@H]3COCC(C)O (stereo partly drawn) [HPBCD, (2-hydroxypropyl)-beta-cyclodextrin]	still evoked glutamate release		< 1.00	100000 µM	43%			
	COC[C@H]1O[C@@H]2O[C@H]3[C@H](O)[C@@H](OC)[C@@H](O[C@H]4[C@H](O)[C@@H](OC)[C@@H](O[C@H]5[C@H](O)[C@@H](OC)[C@@H](O[C@H]6[C@H](O)[C@@H](OC)[C@@H](O[C@H]7[C@H](O)[C@@H](OC)[C@@H](O[C@H]8[C@H](O)[C@@H](OC)[C@@H](O[C@H]1[C@H](O)[C@H]2OC)O[C@@H]8COC)O[C@@H]7COC)O[C@@H]6COC)O[C@@H]5COC)O[C@@H]4COC)O[C@@H]3COC [DIMEB, heptakis(2,6-di-O-methyl)-beta-cyclodextrin]	not detected	1.74		higher than 10 mM	about 60%	total loss of viability	1.58	
	randomly methylated alpha-cyclodextrin [RAMEA]	not detected	< 1.22		100000 µM			~1.05	100000
